Experimental findings from patent US20170202838A1, “IMMUNOMODULATOR” (TAIHO PHARMACEUTICAL CO., LTD., priority 2015, published 2017) are described below.

In one assay the test system is EG.7-OVA. The assay is described as follows: Peripheral blood immunocyte analysis in mouse model subcutaneously implanted with OVA-expressing thymoma cell line (Example 5). To be noted: Compound (I) 50 mg/kg, 14 days after implantation, compared with control group and anti-PD-1 antibody group (FIG. 6). It is filed as in vivo. As to the method:
A cell suspension of the OVA-expressing mouse thymoma cell line (EG.7-OVA) was prepared with the use of PBS(-) and 50% Matrigel, and the cell suspension (1×10^4 cells/mouse) was implanted into the syngeneic C57BL/6n mice via subcutaneous injection. The mice were divided into groups based on their body weights 1 day after implantation, and Compound (I) was administered thereto at 50 mg/kg or the anti-PD-1 antibody was administered thereto at 100 μg/mouse. A control group to which neither Compound (I) nor the anti-PD-1 antibody had been administered was also prepared. The peripheral blood was sampled 14 days after implantation and analyzed via flow cytometry with the use of antibodies each reacting with a relevant immunocyte surface marker, so as to determine the relative number of CD4-positive cells, CD8-positive cells, and CD4-negative, CD8-negative, and NK1.1-positive cells. […] In the group to which Compound (I) had been administered, the number of all cells increased, compared with the control group and the group to which the anti-PD-1 antibody had been administered.

For a further assay, the system named is K1735M2. The assay is described as follows: Tumor volume of subcutaneous mouse melanoma cell line, potentiation of anti-PD-1 or anti-PD-L1 antibody, in vivo model (Example 10). To be noted: Compound (I) 50 mg/kg, antibody 100 μg/mouse, alone or in combination (FIG. 12). As to the method:
A cell suspension of the mouse melanoma cell line K1735M2 was prepared with the use of PBS(-) and 50% Matrigel, and the cell suspension was injected subcutaneously into mice at 1×10^6 cells/mouse. The mice were divided into groups based on their body weights 1 day after implantation, Compound (I) (50 mg/kg) or the anti-PD-1 antibody or anti-PD-L1 antibody (100 μg/mouse) was administered thereto alone or either the anti-PD-1 antibody or the anti-PD-L1 antibody was administered in combination with Compound (I), and the tumor volume was measured with the elapse of time. The tumor volume was determined on the basis of the longer diameter and the shorter diameter of the tumor measured percutaneously in accordance with Equation A shown above.

The next assay relates to B16F10. The assay is described as follows: Pulmonary metastatic nodules after intravenous injection of mouse melanoma cell line, in vivo model (Example 8). To be noted: oral 12.5 mg/kg or 50 mg/kg, 14 days after implantation, compared with control group (FIG. 10). As to the method: A cell suspension of the mouse melanoma cell line B16F10 was prepared with the use of PBS(-), and the cell suspension was injected intravenously into the mouse caudal portion at 5×10^5 cells/mouse. Compound (I) was administered orally to the mouse model at 12.5 mg/kg or 50 mg/kg on the previous day of B16F10 implantation. The number of pulmonary metastatic nodules was evaluated 14 days after implantation (i.e., 15 days after drug administration). […] On the basis of the results above and the results of Reference Example 1 such that the tumor growth inhibitory effects were not observed in the in vitro model, it was deduced that the decreased number of pulmonary metastatic nodules was achieved by the immunomodulation activity of Compound (I).

The subject of a further assay is mouse spleen cells. The assay is described as follows: Excitation of T cell growth, CFSE flow cytometry of CD4- and CD8-positive spleen cells (Example 4). It is filed as cell-based. To be noted: anti-CD3 1 μg/ml and anti-CD28 1 μg/ml, 3 days; comparators at 0.1 μM (FIG. 5). As to the method: The mouse spleen was extracted, grinded with glass slides with frosted areas, and then subjected to hemolysis, so as to obtain spleen cells. The spleen cells were suspended in 5 ml of a staining buffer (0.5% BSA, 2 mM EDTA, PBS(-)), and the cells were stained with 5 μM CFSE (5-carboxyfluorescein succinimidyl ester). Thereafter, the stained cells were washed with an ice-cooled complete medium (RPMI-1640). The CFSE-stained spleen cells were introduced into a complete medium (i.e., RPMI-1640 supplemented with 10% heat-inactivated FBS, 100 U/ml penicillin, 100 μg/ml streptomycin, and 55 μM 2-mercaptoethanol) to prepare a cell suspension (1×10^6 cells/ml), the anti-CD3 antibody and the anti-CD28 antibody were added at 1 μg/ml and 1 μg/ml, respectively, and Compound (I) adjusted to various concentrations or the EGFR tyrosine kinase inhibitor (i.e., AZD09291, Erlotinib, Co1686 (Rociletinib), Ibrutinib, Sunitinib, or Dasatinib) was added at 0.1 μM. […] These culture solutions were seeded in a 96-well plate at 200 μl/well and then cultured in an incubator at 37° C. in the presence of 5% CO2 for 3 days. The cells were recovered and stained with the anti-CD4 antibody and the anti-CD8 antibody. The amounts of CFSE in CD4- and CD8-positive cells were analyzed via flow cytometry.
Once CFSE is incorporated into a cell, the amount thereof is kept constant in the cell. Since the amount of CFSE per cell decreases by half upon cell division, according to flow cytometric analysis, the intensity of CFSE staining is attenuated and is shifted toward left (i.e., lower level) in the chart, as cell division proceeds. […] In the case of the samples to which other types of EGFR tyrosine kinase inhibitors had been added, in contrast, no such activity for enhancing the cell growth was observed.

In a further assay the test system is colon26. The assay is described as follows: Analysis of immunocytes in spleen cells in mouse model subcutaneously implanted with colon cancer cell line (Example 6). It is filed as in vivo. To be noted: Compound (I) 50 mg/kg and/or anti-PD-1 antibody 100 μg/mouse. The protocol:
A cell suspension of the mouse colon cancer cell line (colon26) was prepared with the use of PBS(-) and 50% Matrigel, and the cell suspension was implanted into the syngeneic BALB/c mice via subcutaneous injection at 2×10^3 cells/mouse. The mice were divided into groups based on their body weights 1 day after implantation, and Compound (I) was administered thereto at 50 mg/kg and/or the anti-PD-1 antibody was administered thereto at 100 μg/mouse. A control group to which neither Compound (I) nor the anti-PD-1 antibody had been administered was also prepared. The spleen cells were sampled 21 days after implantation and analyzed via flow cytometry with the use of antibodies each reacting with a relevant immunocyte surface marker.

The next assay has as its system MC38. The assay is described as follows: Tumor volume of subcutaneous mouse colon cancer cell line, alone or combined with anti-PD-1 antibody, in vivo model (Example 11). As to the method: A cell suspension of the mouse colon cancer cell line MC38 was prepared with the use of PBS(-) and 50% Matrigel, and the cell suspension was injected subcutaneously into mice at 1×10^6 cells/mouse. The mice were divided into groups when the average subcutaneous tumor volume reached approximately 50 mm^3, Compound (I) (50 mg/kg) or the anti-PD-1 antibody (50 μg/mouse) was administered thereto alone or Compound (I) (50 mg/kg) was administered in combination with the anti-PD-1 antibody (50 μg/mouse), and the tumor volume was measured with the elapse of time. The tumor volume was determined on the basis of the longer diameter and the shorter diameter of the tumor measured percutaneously in accordance with Equation A shown below.
Tumor volume (mm^3)=longer diameter (mm)×shorter diameter (mm)^2/2 (Equation A)

Where [1] appears, read: 21 days after implantation (FIG. 7).
Setting [2] is: 21 days after implantation, compared with control group (FIG. 8).

Take `C=CC(=O)N[C@H]1CCc2c(-c3cnc4ccccc4c3)c3c(N)ncnc3n2C1` [Compound (I), (S)—N-(4-amino-5-(quinolin-3-yl)-6,7,8,9-tetrahydropyrimido[5,4-b]indolizin-8-yl)acrylamide]: in the assay with EG.7-OVA, the “relative number of CD4-negative, CD8-negative, and NK1.1-positive cells in peripheral blood” value is given as “increased”; the “relative number of CD4-positive cells in peripheral blood” value is recorded as “increased”; the “relative number of CD8-positive cells in peripheral blood” value is reported as “increased”. In addition, in the assay on K1735M2, the “extent of tumor growth inhibition (tumor volume)” value is on record as “not sufficient”. In the assay with B16F10, the “number of pulmonary metastatic nodules” value was “decreased in a dose-dependent manner”. In addition, in the assay on mouse spleen cells, the “amount of CFSE per CD4-positive cell (cell growth)” value is “decreases” and the “amount of CFSE per CD8-positive cell (cell growth)” value is given as “decreases”. Also, in the assay on colon26 (setting [1]), the “relative number of CD4-positive and CD69-positive cells in spleen cells” value was “greater than those in the control group”; the “relative number of CD4-positive, CD44-positive, and CD62L-negative cells in spleen cells” value is recorded as “greater than those in the control group”. In the assay with colon26 (setting [2]), the “CD44 expression level in CD4-positive cells (MFI)” value was “increased” and the “CD62L expression level in CD4-positive cells (MFI)” value is listed as “decreased”. For the same compound, the “extent of tumor growth inhibition (tumor volume)” value with MC38 (Compound (I) 50 mg/kg alone, compared with control group (FIG. 13)) is “greater”. In addition, in the assay with MC38 (Compound (I) 50 mg/kg in combination with anti-PD-1 antibody 50 μg/mouse (FIG. 13)), the “potentiation of the activity of the anti-PD-1 antibody (tumor volume)” value is recorded as “potentiate the immunomodulation activity of the anti-PD-1 antibody”.
